Assay results as given in publication PMC2879659 (International journal of comparative psychology / ISCP ; …, 2010).

Assays:
zebrafish (Danio rerio) [1] = experiment: Novel dive tank test; details: 3 min exposure
zebrafish (Danio rerio) [2] = experiment: Novel aquatic light/dark plus maze test; assay type: in vivo; details: for time frozen in the center of the maze: PETCO San Antonio zebrafish, N = 5-6, controls 81 ± 48 s
zebrafish (Danio rerio) [3] = details: cited from earlier work; for bottom dwelling by zebrafish, effect: another study, ref Bencan, Sledge, & Levin, 2009
zebrafish = details: ref Lau et al., 2010; cited from earlier work
zebrafish (Danio rerio) [4] = details: 0.05 h, 125 ug/mL
[5] = 25 mg/L, PETCO zebrafish, N = 8
[6] = 25 mg/L, Aquatic Eco-Systems zebrafish, N = 9
[7] = 125 mg/L, PETCO zebrafish, N = 4, not significant vs untreated
[8] = 50 and 100 mg/L, zebrafish from PETCO San Antonio, TX
[9] = nicotine 25 mg/L, AB, WIK, PETCO and GloFish lines

Q: What does the source list for CNCCCN1c2ccccc2CCc2ccccc21 [desipramine]?
A: time spent in top of dive tank, effect vs untreated (zebrafish (Danio rerio) [1]; [5]): significantly more time in the top of the dive tank than untreated fish; anxiolytic behaviors in the plus maze (zebrafish (Danio rerio) [2]; 25 mg/L, PETCO zebrafish): neither desipramine nor citalopram produced any anxiolytic behaviors in the plus maze; arm entries, effect vs controls (zebrafish (Danio rerio) [2]; [5]): Neither nicotine nor desipramine exposure had any effect on arm entries

Q: For COC(=O)[C@@H]1[C@H]2C[C@H]3c4[nH]c5ccccc5c4CCN3C[C@@H]2CC[C@@H]1O [yohimbine], which “time spent in top 2/3 of dive tank, effect vs controls” value (zebrafish (Danio rerio) [1]; [6]) is on record?
A: did not differ from untreated control fish

Q: And the “total arm entries, effect” value (zebrafish (Danio rerio) [2]; [6])?
A: did not differ in total arm entries

Q: Which “bottom dwelling by zebrafish, effect” value (zebrafish (Danio rerio) [3]) does the source give for CN1C(=O)CN=C(c2ccccc2)c2cc(Cl)ccc21 [diazepam] here?
A: reduced bottom dwelling

Q: Which “anxiolytic behaviors in the plus maze” value (zebrafish (Danio rerio) [2]; 100 mg/L, Aquatic Eco-Systems zebrafish) does the source give for CN(C)CCCC1(c2ccc(F)cc2)OCc2cc(C#N)ccc21 (stereo not shown) [citalopram] here?
A: neither desipramine nor citalopram produced any anxiolytic behaviors in the plus maze

Q: And the “total arm entries, effect” value (zebrafish (Danio rerio) [2]; 100 mg/L, Aquatic Eco-Systems zebrafish, N = 9)?
A: did not differ in total arm entries

Q: What does the source list for CNC1=Nc2ccc(Cl)cc2C(c2ccccc2)=[N+]([O-])C1 [chlordiazepoxide]?
A: time spent in top 2/3 of dive tank, effect vs controls (zebrafish (Danio rerio) [1]; [6]): did not differ from untreated control fish; total arm entries, effect (zebrafish (Danio rerio) [2]; [6]): did not differ in total arm entries; time in the white arms (zebrafish (Danio rerio) [2]; 25 mg/L, Aquatic Eco-Systems zebrafish, N = 9, controls 60 ± 10 s): 124 ± 25 s; white arm entries, % of total entries (zebrafish (Danio rerio) [2]; 25 mg/L, Aquatic Eco-Systems zebrafish, N = 9, untreated 22 ± 2%): 36 ± 5%; time spent on the light side of a tank, effect (zebrafish): increased the amount of time zebrafish spent on the light side of a tank

Q: For CCO [ethanol], which “time spent in top 2/3 of dive tank, effect vs controls” value (zebrafish (Danio rerio) [1]; 0.5% ethanol, PETCO zebrafish, p = 0.08) is on record?
A: non-significant trend toward zebrafish spending more time in the top 2/3 of the tank

Q: And the “total arm entries, effect vs controls” value (zebrafish (Danio rerio) [2]; 0.5% ethanol, PETCO zebrafish, N = 7)?
A: significant increase in total arm entries

Q: What about the “time in white arms” value (zebrafish (Danio rerio) [2]; 0.5% ethanol, PETCO zebrafish, N = 7, untreated controls 41 ± 17 s) of the same compound?
A: 126 ± 20 s

Q: For CN1CCC[C@H]1c1cccnc1 [nicotine], which “time at the dive tank top” value (zebrafish (Danio rerio) [4]) is on record?
A: 4 ± 4 s

Q: What about the “time spent in top of dive tank, effect vs untreated” value (zebrafish (Danio rerio) [1]; [5]) of the same compound?
A: Neither 25 mg/L nicotine (NIC) nor 0.05% DMSO affected behavior in the dive tank

Q: And the “time spent in top of dive tank, effect vs untreated” value (zebrafish (Danio rerio) [1]; nicotine 25 mg/L, AB, WIK, PETCO and GloFish lines, 5 min test)?
A: no significant anxiolytic effect

Q: What about the “arm entries, effect vs controls” value (zebrafish (Danio rerio) [2]; [5]) of the same compound?
A: Neither nicotine nor desipramine exposure had any effect on arm entries

Q: What about the “time frozen in the center of the maze” value (zebrafish (Danio rerio) [2]; 50 mg/L) of the same compound?
A: 9 ± 5 s

Q: And the “time frozen in the center of the maze” value (zebrafish (Danio rerio) [2]; 100 mg/L)?
A: 198 ± 46 s

Q: What about the “% of white entries” value (zebrafish (Danio rerio) [2]; [7]) of the same compound?
A: 25 ± 3%

Q: What about the arm entries (zebrafish (Danio rerio) [2]; [7]) of the same compound?
A: 30 ± 9 entries

Q: And the “time frozen in the middle” value (zebrafish (Danio rerio) [2]; [7])?
A: 57 ± 17 s

Q: And the “total time spent in white arms” value (zebrafish (Danio rerio) [2]; [7])?
A: 56 ± 24 s

Q: And the “time spent in white arms, effect” value (zebrafish (Danio rerio) [2]; [8])?
A: no effect

Q: And the “white arm entries, effect” value (zebrafish (Danio rerio) [2]; [8])?
A: no effect

Q: What about the “% white arm entries of total entries, effect” value (zebrafish (Danio rerio) [2]; [9]) of the same compound?
A: no effect

Q: And the “initial time frozen in centre (latency to enter an arm), effect” value (zebrafish (Danio rerio) [2]; [9])?
A: no influence

Q: And the “time spent in white arms, effect” value (zebrafish (Danio rerio) [2]; [9])?
A: nor was there an effect

Q: And the “total number of arm entries, effect” value (zebrafish (Danio rerio) [2]; [9])?
A: no effect

Q: And the “bottom dwelling in novel dive tanks, effect” value (zebrafish (Danio rerio) [3]; 50 and 100 mg/L, previous studies, ref Levin et al., 2007)?
A: reduced zebrafish bottom dwelling at earlier time points

Q: With O=C1CC2(CCCC2)CC(=O)N1CCCCN1CCN(c2ncccn2)CC1 [buspirone] as the compound, how does the “bottom dwelling by zebrafish, effect” value (zebrafish (Danio rerio) [3]) read?
A: reduced bottom dwelling

Q: What does the source list for C[S+](C)[O-] [DMSO]?
A: time spent in top 2/3 of dive tank, effect vs controls (zebrafish (Danio rerio) [1]; 0.05% DMSO, PETCO zebrafish): no significant anxiolytic effect; total arm entries, effect vs controls (zebrafish (Danio rerio) [2]; 0.05% DMSO, PETCO zebrafish, N = 8): significant increase in total arm entries; time in white arms, effect vs controls (zebrafish (Danio rerio) [2]; 0.05% DMSO, PETCO zebrafish, N = 8, p < 0.05): spent significantly more time in white arms than untreated controls
